According to patent US20250289789A1, “REVERSIBLE LYSINE COVALENT MODIFIERS OF CDK2 AND USES THEREOF” (Terremoto Biosciences, Inc., priority 2023, published 2025):
pIC50: −log10 of the molar value. Where two headings read alike, the source gives them in different places.

Tests used:
Assay type in all cases: cell-based
[1] = biological target: T1, CDK1-NanoLuc fusion with CCNB1 in 293T or 293 cells (Homo sapiens, UniProt P06493); experiment: NanoBRET Target Engagement (TE) Intracellular Kinase Assay, CDK1/CCNB1; details: NanoBRET TE intracellular kinase assay, 2-hour incubation, read-out: NanoBRET-CDK1/B1 IC50
T1 construct: host or cells: 293T (ATCC CRL-3216) or 293 (ATCC CRL-1573)
How it was run: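 293T or 293 cells co-transfected with CDK1-NanoLuc and CCNB1 vectors, incubated 24 h, then exposed to NanoBRET Tracer K-10 plus compound for 2 h at 37° C. BRET ratio (610/450 nm) normalized to DMSO; IC50 from four-parameter logistic fit.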

[2] = biological target: T2, CDK2-NanoLuc fusion with CCNE1 in 293T or 293 cells (Homo sapiens, UniProt P24941); experiment: NanoBRET Target Engagement (TE) Intracellular Kinase Assay, CDK2/CCNE1; details: NanoBRET TE intracellular kinase assay, 2-hour incubation, read-out: NanoBRET-CDK2/E1 IC50
T2 construct: host or cells: 293T (ATCC CRL-3216) or 293 (ATCC CRL-1573)

[3] = biological target: T3, CDK4-NanoLuc fusion with CCND1 in 293T or 293 cells (Homo sapiens, UniProt P11802); experiment: NanoBRET Target Engagement (TE) Intracellular Kinase Assay, CDK4/CCND1; details: NanoBRET TE intracellular kinase assay, 2-hour incubation, read-out: NanoBRET-CDK4/D1 IC50
T3 construct: host or cells: 293T (ATCC CRL-3216) or 293 (ATCC CRL-1573)

[4] = test system: Phospho-Rb Ser807/811 in OVCAR3 cells; experiment: OVCAR3 Phospho-Rb Ser807/811 HTRF assay; details: Homo sapiens, OVCAR3 cells, Phospho-Rb Ser807/811 HTRF, 1 hour incubation, read-out: pRb-OVCAR3 IC50
Procedure: Cells were trypsinized and resuspended in 1 mM hydroxyurea (Sigma; H8627), 90% RPMI and 10% fetal bovine serum. […] Dose response curve normalized to DMSO control was plotted using four-parameter logistic model for IC50 calculation.

T3 sequence (P11802 whole entry, the tested form may be a part): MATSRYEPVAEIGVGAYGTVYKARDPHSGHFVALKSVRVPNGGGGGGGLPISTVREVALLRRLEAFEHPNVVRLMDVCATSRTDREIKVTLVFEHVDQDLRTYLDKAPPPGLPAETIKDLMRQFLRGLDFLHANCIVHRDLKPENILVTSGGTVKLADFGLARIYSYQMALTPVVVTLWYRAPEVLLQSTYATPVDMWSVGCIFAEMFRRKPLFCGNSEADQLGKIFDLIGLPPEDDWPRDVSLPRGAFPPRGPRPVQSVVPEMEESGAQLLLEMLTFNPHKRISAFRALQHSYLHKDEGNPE
T3 sequence (P24385 whole entry partner, the tested form may be a part): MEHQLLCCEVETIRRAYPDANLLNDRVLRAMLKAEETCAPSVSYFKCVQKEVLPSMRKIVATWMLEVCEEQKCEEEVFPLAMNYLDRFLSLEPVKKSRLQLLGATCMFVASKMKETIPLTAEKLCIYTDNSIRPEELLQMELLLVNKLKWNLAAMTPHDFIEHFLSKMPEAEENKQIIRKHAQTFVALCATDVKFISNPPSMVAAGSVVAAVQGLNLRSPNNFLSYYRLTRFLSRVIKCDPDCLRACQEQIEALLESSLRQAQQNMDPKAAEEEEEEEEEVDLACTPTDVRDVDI
T1 sequence (P06493 whole entry, the tested form may be a part): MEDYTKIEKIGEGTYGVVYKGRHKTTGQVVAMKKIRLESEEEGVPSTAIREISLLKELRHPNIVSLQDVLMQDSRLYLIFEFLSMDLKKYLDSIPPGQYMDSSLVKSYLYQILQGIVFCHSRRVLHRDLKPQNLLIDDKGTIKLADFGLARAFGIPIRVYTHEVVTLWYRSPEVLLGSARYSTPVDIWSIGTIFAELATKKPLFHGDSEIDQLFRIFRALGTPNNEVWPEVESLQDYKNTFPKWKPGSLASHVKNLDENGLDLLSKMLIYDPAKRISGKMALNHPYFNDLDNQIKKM
T1 sequence (P14635 whole entry partner, the tested form may be a part): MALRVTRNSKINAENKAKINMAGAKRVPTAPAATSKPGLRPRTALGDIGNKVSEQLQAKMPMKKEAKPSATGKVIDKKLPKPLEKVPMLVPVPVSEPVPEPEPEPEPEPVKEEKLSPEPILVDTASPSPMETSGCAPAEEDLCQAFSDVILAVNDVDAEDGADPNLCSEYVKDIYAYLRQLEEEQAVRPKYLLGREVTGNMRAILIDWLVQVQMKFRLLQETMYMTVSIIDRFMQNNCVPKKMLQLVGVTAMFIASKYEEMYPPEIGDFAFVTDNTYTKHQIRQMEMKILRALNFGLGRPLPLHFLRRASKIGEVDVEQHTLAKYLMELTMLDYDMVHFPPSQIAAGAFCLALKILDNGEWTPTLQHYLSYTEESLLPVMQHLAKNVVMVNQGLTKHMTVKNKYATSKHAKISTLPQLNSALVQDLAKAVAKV

Row | pIC50 [1] | pIC50 [2] | pIC50 [3] | pIC50 ([4]; OVCAR-3, 1 h) | SMILES | pIC50 ([4]; OVCAR-3)
1 | 7.73 | 8.64 | < 5.00 | 6.92 | CCCNC(=O)O[C@@H]1CC[C@H](c2cc(NC(=O)COc3cccc(O)c3C=O)n[nH]2)C1 [Compound 81, (1R,3S)-3-{5-[2-(2-formyl-3-hydroxyphenoxy)acetamido]-2H-pyrazol-3-yl}cyclopentyl N-propylcarbamate; trifluoroacetic acid] | 
2 | 7.67 | 8.01 | 5.10 | 7.38 | COc1cc(O)c(C=O)c(OCC(=O)Nc2cc([C@H]3CC[C@@H](OC(=O)NCCC#N)C3)[nH]n2)c1 [Compound 208] | 
3 | 7.94 | 8.38 | < 5.00 | 7.21 | COc1cc(O)c(C=O)c(OCC(=O)Nc2cc([C@H]3C[C@@H](OC(=O)NC(C)C)C3)[nH]n2)c1 [Compound 113, (1s,3s)-3-(3-(2-(2-formyl-3-hydroxy-5-methoxyphenoxy)acetamido)-1H-pyrazol-5-yl)cyclobutyl isopropylcarbamate] | 
4 | 8.66 | 8.61 | 5.57 | 7.66 | COc1cc(O)c(C=O)c(OCC(=O)Nc2cc([C@H]3CC[C@@H](OC(=O)N4CC[C@H](F)C4)C3)[nH]n2)c1 [Compound 233] | 
5 | 7.64 | 8.52 | 5.41 | 7.11 | COc1cc(O)c(C=O)c(OCC(=O)Nc2cc([C@@H]3CCC(OC(=O)N4CCCC4)C3)[nH]n2)c1 (stereo partly drawn) [Compound 241] | 
6 | 7.89 | 8.39 | 5.33 | 7.55 | COc1cc(O)c(C=O)c(OCC(=O)Nc2cc([C@H]3CC[C@@H](OC(=O)N4[C@H](C)COC[C@@H]4C)C3)[nH]n2)c1 [Compound 201] | 
7 | 7.73 | 8.13 | < 5.00 | 7.22 | COc1cc(O)c(C=O)c(OCC(=O)Nc2cc([C@H]3CC[C@@H](OC(=O)N4C[C@H]5C[C@@H]4CO5)C3)[nH]n2)c1 [Compound 203] | 
8 | 7.61 | 8.56 | 5.01 | 6.68 | O=Cc1c(O)cccc1OCC(=O)Nc1cc([C@H]2CC[C@@H](OC(=O)NC3CCC3)C2)[nH]n1 [Compound 87, (1R,3S)-3-(3-(2-(2-formyl-3-hydroxyphenoxy)acetamido)-1H-pyrazol-5-yl)cyclopentyl cyclobutylcarbamate] | 
9 | 7.18 | 8.30 | 5.19 | 6.51 | COc1cc(O)c(C=O)c(Oc2ccnc(Nc3cc([C@H]4CC[C@@H](OC(=O)NC(C)C)C4)[nH]n3)c2)c1 [Compound 76, (1R,3S)-3-(3-((4-(2-formyl-3-hydroxy-5-methoxyphenoxy) 476yridine-2-yl)amino)-1H-pyrazol-5-yl)cyclopentyl isopropylcarbamate] | 
10 | 7.58 | 8.16 | < 5.00 | 7.16 | COCCOCCNC(=O)O[C@@H]1CC[C@H](c2cc(NC(=O)COc3cc(OC)cc(O)c3C=O)n[nH]2)C1 [Compound 210] | 
11 | 6.78 | 8.01 | 5.88 | 5.84 | CC(C)NC(=O)O[C@@H]1CC[C@H](c2cc(NC(=O)[C@H]3C[C@@H](Oc4cccc(O)c4C=O)C3)n[nH]2)C1 (single isomer, unassigned) [Compound 94] | 
12 | 6.77 | 8.20 | 5.81 | 6.31 | CC(C)NC(=O)O[C@@H]1CC[C@H](c2cc(NC(=O)c3cc(-c4cnccc4C=O)nn3C)n[nH]2)C1 [Compound 44, (1R,3S)-3-(3-(3-(4-formylpyridin-3-yl)-1-methyl-1H-pyrazole-5-carboxamido)-1H-pyrazol-5-yl)cyclopentyl isopropylcarbamate; trifluoroacetic acid] | 
13 | 7.55 | 8.07 | 5.33 | 6.50 | Cc1sc(-c2cccc(O)c2C=O)nc1C(=O)Nc1cc([C@H]2CC[C@@H](OC(=O)NC(C)C)C2)[nH]n1 [Compound 65, (1R,3S)-3-(3-(2-(2-formyl-3-hydroxyphenyl)-5-methylthiazole-4-carboxamido)-1H-pyrazol-5-yl)cyclopentyl isopropylcarbamate] | 
14 | 6.15 | 7.98 | < 5.00 | 5.60 | CC(C)NC(=O)O[C@@H]1CC[C@H](c2cc(NC(=O)COc3cc(-n4cccn4)cc(O)c3C=O)n[nH]2)C1 [Compound 257] | 
15 | 7.43 | 8.73 | 5.03 | 7.18 | CC(C)NC(=O)O[C@@H]1CC[C@H](c2cc(NC(=O)COc3cc(OC(C)C)cc(O)c3C=O)n[nH]2)C1 [Compound 250] | 
16 | 7.71 | 7.80 | 5.14 | 7.00 | COc1cc(O)c(C=O)c(OCC(=O)Nc2cc([C@@H]3CC[C@H](OC(=O)NC(C)C)C3)[nH]n2)c1 [Compound 247] | 
17 | 7.94 | 8.75 | 5.30 | 7.25 | COc1cc(O)c(C=O)c(OCC(=O)Nc2cc([C@H]3CC[C@@H](OC(=O)N4CC5CC5C4)C3)[nH]n2)c1 (stereo partly drawn) [Compound 237] | 
18 | 6.56 | 7.79 | 5.42 | 5.62 | CC(C)NC(=O)O[C@@H]1CC[C@H](c2cc(NC(=O)C3CCN(c4cccc(O)c4C=O)CC3)n[nH]2)C1 [Compound 92, (1R,3S)-3-{5-[1-(2-formyl-3-hydroxyphenyl)piperidine-4-amido]-2H-pyrazol-3-yl}cyclopentyl N-isopropylcarbamate] | 
19 | 7.11 | 7.79 | 5.62 | 6.03 | CC(C)NC(=O)O[C@@H]1CC[C@H](c2cc(NC(=O)c3cc(Oc4cccc(O)c4C=O)nn3C)n[nH]2)C1 [Compound 19, (1R,3S)-3-{5-[5-(2-formyl-3-hydroxyphenoxy)-2-methylpyrazole-3-amido]-2H-pyrazol-3-yl}cyclopentyl N-isopropylcarbamate] | 
20 | 8.66 | 9.00 | 5.63 | 7.18 | COc1cccc(OCC(=O)Nc2cc([C@H]3CC[C@@H](OC(=O)NC4(C)CCC4)C3)[nH]n2)c1C=O [Compound 105, (1R,3S)-3-{5-[2-(2-formyl-3-methoxyphenoxy)acetamido]-2H-pyrazol-3-yl}cyclopentyl N-(1-methylcyclobutyl)carbamate; trifluoroacetic acid] | 
21 | 7.35 | 8.53 | < 5.00 | 7.22 | COc1cc(O)c(C=O)c(OCC(=O)Nc2cc([C@H]3CC[C@@H](OC(=O)NN4CCCC4)C3)[nH]n2)c1 [Compound 217] | 

Row | SMILES | pIC50 [1] | pIC50 [2] | pIC50 [3] | pIC50 ([4]; OVCAR-3, 1 h) | pIC50 ([4]; OVCAR-3)
22 | COc1cc(O)c(C=O)c(OCC(=O)Nc2cc([C@H]3CC[C@@H](OC(=O)N4CC5CC(C4)O5)C3)[nH]n2)c1 [Compound 235] | 7.31 | 8.12 | < 5.00 | 6.92 | 
23 | COc1cc(O)c(C=O)c(OCC(=O)Nc2cc([C@H]3CC[C@@H](OC(=O)N4C5CCCC4C5)C3)[nH]n2)c1 [Compound 220] | 8.08 | 8.54 | 5.84 | 7.49 | 
24 | CC(C)NC(=O)O[C@@H]1CC[C@H](c2cc(NC(=O)CCc3ccc(O)c(C=O)c3)n[nH]2)C1 [Compound 6, (1R,3S)-3-{5-[3-(3-formyl-4-hydroxyphenyl)propan-amido]-2H-pyrazol-3-yl}cyclopentyl N-isopropylcarbamate; trifluoroacetic acid] | 6.95 | 7.90 | 6.40 |  | 6.21
